Test results from patent US10421778B2, “Isoform-selective lysine deacetylase inhibitors” (WASHINGTON UNIVERSITY, priority 2015, dated 2019).
Marks after values point to notes of the source that are not given here.

How the values were obtained:
Test in all cases: KDAC inhibition assay, Caliper EZ Reader II
Format in all cases: biochemical
Details in all cases: % inhibition at 30 μM
[1] = target: T1, recombinant human KDAC1 (Homo sapiens, UniProt Q13547)
T1 construct: purchased BPS Bioscience

[2] = target: T2, recombinant human KDAC8 (Homo sapiens, UniProt Q9BY41)
T2 construct: purchased BPS Bioscience
T2 sequence (Q9BY41 1-377): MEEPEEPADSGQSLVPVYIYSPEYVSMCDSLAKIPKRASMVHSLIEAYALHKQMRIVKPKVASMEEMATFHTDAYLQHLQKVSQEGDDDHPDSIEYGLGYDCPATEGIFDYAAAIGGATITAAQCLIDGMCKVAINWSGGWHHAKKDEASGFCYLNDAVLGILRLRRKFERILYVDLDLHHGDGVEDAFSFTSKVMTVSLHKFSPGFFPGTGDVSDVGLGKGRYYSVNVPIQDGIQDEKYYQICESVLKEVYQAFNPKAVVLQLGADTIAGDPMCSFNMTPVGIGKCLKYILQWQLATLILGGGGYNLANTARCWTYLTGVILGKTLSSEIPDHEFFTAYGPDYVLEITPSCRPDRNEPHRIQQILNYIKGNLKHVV

[3] = target: T3, recombinant human KDAC6 (Homo sapiens, UniProt Q9UBN7)
T3 construct: purchased BPS Bioscience
T3 sequence (Q9UBN7 1-1215): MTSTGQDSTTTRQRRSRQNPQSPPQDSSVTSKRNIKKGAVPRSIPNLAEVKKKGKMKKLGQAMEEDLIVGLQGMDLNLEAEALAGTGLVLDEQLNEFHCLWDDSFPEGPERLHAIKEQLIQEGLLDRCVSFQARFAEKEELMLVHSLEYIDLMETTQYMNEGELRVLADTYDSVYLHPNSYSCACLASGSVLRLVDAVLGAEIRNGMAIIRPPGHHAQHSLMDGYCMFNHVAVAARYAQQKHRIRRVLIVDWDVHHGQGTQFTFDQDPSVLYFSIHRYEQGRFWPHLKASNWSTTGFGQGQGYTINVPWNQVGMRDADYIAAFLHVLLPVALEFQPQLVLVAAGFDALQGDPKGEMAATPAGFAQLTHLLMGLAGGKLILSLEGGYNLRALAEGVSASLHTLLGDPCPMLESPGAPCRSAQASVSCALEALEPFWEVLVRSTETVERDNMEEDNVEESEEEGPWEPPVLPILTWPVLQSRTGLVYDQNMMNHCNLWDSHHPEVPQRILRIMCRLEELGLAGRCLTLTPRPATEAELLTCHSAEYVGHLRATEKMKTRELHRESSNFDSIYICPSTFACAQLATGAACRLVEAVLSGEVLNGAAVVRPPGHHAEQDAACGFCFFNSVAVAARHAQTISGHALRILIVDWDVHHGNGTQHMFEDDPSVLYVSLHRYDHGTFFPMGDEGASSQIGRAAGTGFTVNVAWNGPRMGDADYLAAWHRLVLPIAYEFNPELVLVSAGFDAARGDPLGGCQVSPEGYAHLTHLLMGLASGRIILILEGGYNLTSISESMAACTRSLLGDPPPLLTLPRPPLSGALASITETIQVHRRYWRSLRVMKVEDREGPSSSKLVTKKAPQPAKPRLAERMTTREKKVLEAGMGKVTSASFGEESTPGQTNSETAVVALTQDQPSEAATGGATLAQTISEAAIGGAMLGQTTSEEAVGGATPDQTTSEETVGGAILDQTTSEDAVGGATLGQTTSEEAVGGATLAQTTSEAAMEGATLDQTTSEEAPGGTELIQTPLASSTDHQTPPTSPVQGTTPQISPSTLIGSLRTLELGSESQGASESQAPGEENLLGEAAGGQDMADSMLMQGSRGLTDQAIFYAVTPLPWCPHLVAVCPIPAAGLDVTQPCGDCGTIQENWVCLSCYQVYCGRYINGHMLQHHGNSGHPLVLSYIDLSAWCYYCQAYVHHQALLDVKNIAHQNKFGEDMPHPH

[4] = target: T4, recombinant human KDAC3 (Homo sapiens, UniProt O15379)
T4 construct: purchased BPS Bioscience
T4 sequence (O15379 whole entry): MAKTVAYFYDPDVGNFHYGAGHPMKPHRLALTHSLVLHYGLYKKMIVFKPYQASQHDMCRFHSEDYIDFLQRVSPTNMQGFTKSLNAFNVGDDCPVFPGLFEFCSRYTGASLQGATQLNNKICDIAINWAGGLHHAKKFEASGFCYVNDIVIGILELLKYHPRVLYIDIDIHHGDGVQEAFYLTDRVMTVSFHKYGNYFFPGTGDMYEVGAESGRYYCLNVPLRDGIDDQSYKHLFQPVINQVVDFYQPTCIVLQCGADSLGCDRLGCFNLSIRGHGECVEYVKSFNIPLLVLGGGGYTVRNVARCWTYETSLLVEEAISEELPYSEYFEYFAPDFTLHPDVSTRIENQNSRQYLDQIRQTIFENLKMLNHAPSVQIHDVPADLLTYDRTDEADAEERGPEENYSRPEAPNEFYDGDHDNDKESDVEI
T4 sequence (Q9Y618 395-489 partner limits assumed): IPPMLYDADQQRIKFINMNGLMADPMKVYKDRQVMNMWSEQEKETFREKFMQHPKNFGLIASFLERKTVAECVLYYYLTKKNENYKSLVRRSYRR

T1 sequence (Q13547 whole entry): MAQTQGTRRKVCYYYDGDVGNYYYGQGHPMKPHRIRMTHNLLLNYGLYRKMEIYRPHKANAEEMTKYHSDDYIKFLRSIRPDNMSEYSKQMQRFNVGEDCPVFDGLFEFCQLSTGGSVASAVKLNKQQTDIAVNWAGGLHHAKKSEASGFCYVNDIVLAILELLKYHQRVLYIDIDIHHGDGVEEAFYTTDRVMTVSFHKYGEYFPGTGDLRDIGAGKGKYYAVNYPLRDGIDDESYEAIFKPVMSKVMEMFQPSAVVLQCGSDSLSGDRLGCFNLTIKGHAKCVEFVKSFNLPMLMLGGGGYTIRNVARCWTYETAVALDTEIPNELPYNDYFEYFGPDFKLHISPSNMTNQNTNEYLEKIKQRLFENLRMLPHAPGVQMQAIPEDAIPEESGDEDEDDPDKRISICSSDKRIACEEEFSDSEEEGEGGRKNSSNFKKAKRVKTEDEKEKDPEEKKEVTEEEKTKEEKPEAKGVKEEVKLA

Row | Substance | KDAC Inhibition Activity KDAC1 (% inhibition) [1] | KDAC Inhibition Activity KDAC8 (% inhibition) [2] | KDAC Inhibition Activity KDAC6 (% inhibition) [3] | KDAC Inhibition Activity KDAC3 (% inhibition) [4]
1 | Cyclo-Asp(^DPro-Pro-Val)-NHCH2CH2CH2SCH3 [Compound 7a] | Not active | 5% | 6% | Not active
2 | Cyclo-Asp(^DPro-Pro-Val)-NHCH2CH2CH2SH [Compound 6a] | 8% | 6% | 15-36% 26% average | 17-31% 24% average
3 | Cyclo-Asp(^DPro-Pro-Val)-NHCH2CH2SH [Compound 5a] | Not active | 12% | 14% | Not active
4 | Cyclo-^DAsp(Pro-^DPro-Val)-NHCH2CH2CH2COOMe [Compound 23b] | 1% | 7% | 5% | Not active
5 | Cyclo-^DAsp(Pro-^DPro-Val)-NHCH2CH2CH2S(═O)CH3 [Compound 20b] | 1% | 10% | 1% | 16%
6 | Cyclo-^DAsp(Pro-^DPro-Val)-NHCH2CH2CH2SCH3 [Compound 19b] | 1% | 27% | Not active | Not active
7 | Cyclo-^DAsp(^DPro-Pro-Val)-NHCH2CH2CH2COOMe [Compound 12b] | 5% | Not active | Not active | Not active
8 | Cyclo-^DAsp(^DPro-Pro-Val)-NHCH2CH2CH2NH2 [Compound 16b] | 4.5% | 22%^a | 2%^a | 14%^a
9 | Cyclo-^DAsp(^DPro-Pro-Val)-NHCH2CH2CH2SCH3 [Compound 7b] | 1.5% | 28% | Not active | Not active
10 | Cyclo-^DAsp(^DPro-Pro-Val)-NHCH2CH2CH2SH [Compound 6b] | Not active | 8% | Not active | 9%
11 | Cyclo-^DAsp(^DPro-Pro-Val)-NHCH2CH2SH [Compound 5b] | Not active | 6% | 23% | Not active

Other lines, results leading:

Row | KDAC Inhibition Activity KDAC1 (% inhibition) [1] | KDAC Inhibition Activity KDAC8 (% inhibition) [2] | KDAC Inhibition Activity KDAC6 (% inhibition) [3] | KDAC Inhibition Activity KDAC3 (% inhibition) [4] | Substance
12 | Not active | 17% | Not active | 4% | Cyclo-Asp(^DPro-Pro-Val)-NHCH2CH2CH2S(═O)2CH3 [Compound 9a]
13 | Not active | 30% | Not active | Not active | Cyclo-Asp(^DPro-Pro-Val)-NHCH2CH2CH2S(═O)CH3 [Compound 8a]
14 | Not active | 1% | Not active | Not active | Cyclo-Asp(^DPro-Pro-Val)-NHCH2CH2S—SCH2CH2NH2 [Compound 15a]
15 | 2.5% | 31% | Not active | 10% | Cyclo-Asp(^DPro-Pro-Val)-NHCH2CH2S—SCH2CH2NHP(O)(OPh) [Compound 11a]
16 | Not active | 31% | 6% | 13% | Cyclo-^DAsp(Pro-^DPro-Val)-NHCH2CH2CH2CONHOH [Compound 25b]
17 | Not active | 38% | Not active | 9% | Cyclo-^DAsp(Pro-^DPro-Val)-NHCH2CH2CH2COOH [Compound 24b]
18 | Not active | 12% | Not active | 5% | Cyclo-^DAsp(Pro-^DPro-Val)-NHCH2CH2CH2OH [Compound 22b]
19 | Not active | 8% | 12% | Not active | Cyclo-^DAsp(Pro-^DPro-Val)-NHCH2CH2CH2S(═O)2CH3 [Compound 21b]
20 | 9.5% | Not active | 48% | 15% | Cyclo-^DAsp(Pro-^DPro-Val)-NHCH2CH2CH2SH [Compound 18b]
21 | Not active | Not active | 18% | Not active | Cyclo-^DAsp(Pro-^DPro-Val)-NHCH2CH2SH [Compound 17b]
22 | Not active | 4% | 13% | Not active | Cyclo-^DAsp(Pro-^DPro-Val)-NHCH2CH2S—SCH2CH2NH2 [Compound 26b]
23 | 12.5% | 21% | 53% | 27% | Cyclo-^DAsp(^DPro-Pro-Val)-NHCH2CH2CH2CONHOH [Compound 14b]
24 | 2.5% | Not active | Not active | Not active | Cyclo-^DAsp(^DPro-Pro-Val)-NHCH2CH2CH2COOH [Compound 13b]
25 | 1% | 25% | 1% | 9% | Cyclo-^DAsp(^DPro-Pro-Val)-NHCH2CH2CH2OH [Compound 10b]
26 | 4% | 22% | 1% | 3% | Cyclo-^DAsp(^DPro-Pro-Val)-NHCH2CH2CH2S(═O)2CH3 [Compound 9b]
27 | 3.5% | 38% | 3% | 5% | Cyclo-^DAsp(^DPro-Pro-Val)-NHCH2CH2CH2S(═O)CH3 [Compound 8b]
